Measured values: patent publication US11168086B2, “Methods of synthesizing pyrazine compounds” (Hoffmann-La Roche Inc., priority 2015, dated 2021)
pEC50: −log10 of the molar value.

tested on: HBV; assay: HBV inhibition assay: anti-HBV activity in vitro in HepG2.2.15 cells (extracellular HBV DNA by qPCR); type: cell-based; conditions: Hepatitis B virus, 120 h, five days after compound treatment, extracellular HBV DNA in culture supernatant by qPCR, concentration at which HBV replication is inhibited by 50%
Method in brief: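 HepG2.2.15 cells (stably carrying HBV genome) treated with half-log serially diluted compounds at 0.5% DMSO final for five days. Extracellular HBV DNA in supernatant quantified by qPCR after Proteinase K digestion; EC50 is concentration giving 50% inhibition of replication.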

Structure (SMILES)	pEC50
C[C@H]1Cn2ncc(N3CC(c4ccc(Cl)nc4)OC3=O)c2CN1C(=O)Nc1cc(F)c(F)c(F)c1 (stereo partly drawn) [Example 409, (6S)-3-[5-(6-chloro-3-pyridyl)-2-oxo-oxazolidin-3-yl]-6-methyl-N-(3,4,5-trifluorophenyl)-6,7-dihydro-4H-pyrazolo[1,5-a]pyrazine-5-carboxamide]	7.80
C[C@H]1Cn2ncc(N3CC(c4ccc(F)cn4)OC3=O)c2CN1C(=O)Nc1cc(F)c(F)c(F)c1 (stereo partly drawn) [Example 410, (6S)-3-[5-(5-fluoro-2-pyridyl)-2-oxo-oxazolidin-3-yl]-6-methyl-N-(3,4,5-trifluorophenyl)-6,7-dihydro-4H-pyrazolo[1,5-a]pyrazine-5-carboxamide]	7.43
C[C@H]1Cn2ncc(N3CC(c4cccc(F)n4)OC3=O)c2CN1C(=O)Nc1cc(F)c(F)c(F)c1 (stereo partly drawn) [Example 411, (6S)-3-[5-(6-fluoro-2-pyridyl)-2-oxo-oxazolidin-3-yl]-6-methyl-N-(3,4,5-trifluorophenyl)-6,7-dihydro-4H-pyrazolo[1,5-a]pyrazine-5-carboxamide]	7.74
C[C@H]1Cn2ncc(N3CC(c4cnn(C)c4)CC3=O)c2CN1C(=O)Nc1cc(F)c(F)c(F)c1 (stereo partly drawn) [Example 412, (6S)-6-methyl-3-[4-(1-methylpyrazol-4-yl)-2-oxo-pyrrolidin-1-yl]-N-(3,4,5-trifluorophenyl)-6,7-dihydro-4H-pyrazolo[1,5-a]pyrazine-5-carboxamide]	7.68
C[C@H]1Cn2ncc(N3CC(c4cncnc4)CC3=O)c2CN1C(=O)Nc1cc(F)c(F)c(F)c1 (stereo partly drawn) [Example 413, (6S)-6-methyl-3-(2-oxo-4-pyrimidin-5-yl-pyrrolidin-1-yl)-N-(3,4,5-trifluorophenyl)-6,7-dihydro-4H-pyrazolo[1,5-a]pyrazine-5-carboxamide]	7.12
C[C@H]1Cn2ncc(N3CC(Nc4ncc(F)cn4)CC3=O)c2CN1C(=O)Nc1cc(F)c(F)c(F)c1 (stereo partly drawn) [Example 414, (6S)-3-[4-[(5-fluoropyrimidin-2-yl)amino]-2-oxo-pyrrolidin-1-yl]-6-methyl-N-(3,4,5-trifluorophenyl)-6,7-dihydro-4H-pyrazolo[1,5-a]pyrazine-5-carboxamide]	7.77
C[C@H]1Cn2ncc(N3C[C@H](Oc4ncccn4)CC3=O)c2CN1C(=O)Nc1cc(F)c(F)c(F)c1 [Example 415, (6S)-6-methyl-3-[(4R)-2-oxo-4-pyrimidin-2-yloxy-pyrrolidin-1-yl]-N-(3,4,5-trifluorophenyl)-6,7-dihydro-4H-pyrazolo[1,5-a]pyrazine-5-carboxamide]	7.60
C[C@H]1Cn2ncc(N3Cc4ccnn4CC3=O)c2CN1C(=O)Nc1cc(F)c(F)c(F)c1 [Example 419, (6S)-6-methyl-3-(6-oxo-4,7-dihydropyrazolo[1,5-a]pyrazin-5-yl)-N-(3,4,5-trifluorophenyl)-6,7-dihydro-4H-pyrazolo[1,5-a]pyrazine-5-carboxamide]	7.15
C[C@H]1Cn2ncc(N3CC4(CCC4)CC3=O)c2CN1C(=O)Nc1cc(F)c(F)c(F)c1 [Example 421, (6S)-6-methyl-3-(7-oxo-6-azaspiro[3.4]octan-6-yl)-N-(3,4,5-trifluorophenyl)-6,7-dihydro-4H-pyrazolo[1,5-a]pyrazine-5-carboxamide]	7.85
C[C@H]1Cn2ncc(N3CC4(CCC4)C(O)C3=O)c2CN1C(=O)Nc1cc(F)c(F)c(F)c1 (stereo partly drawn) [Example 422, (6S)-3-(8-hydroxy-7-oxo-6-azaspiro[3.4]octan-6-yl)-6-methyl-N-(3,4,5-trifluorophenyl)-6,7-dihydro-4H-pyrazolo[1,5-a]pyrazine-5-carboxamide]	7.19
C[C@H]1Cn2ncc(N3CC4(CC4)C(O)C3=O)c2CN1C(=O)Nc1cc(F)c(F)c(F)c1 (stereo partly drawn) [Example 424, (6S)-3-(7-hydroxy-6-oxo-5-azaspiro[2.4]heptan-5-yl)-6-methyl-N-(3,4,5-trifluorophenyl)-6,7-dihydro-4H-pyrazolo[1,5-a]pyrazine-5-carboxamide]	7.36
CC1CCN(c2cnn3c2CN(C(=O)Nc2cc(F)c(F)c(F)c2)[C@@H](C)C3)C(=O)O1 (stereo partly drawn) [Example 425, (6S)-6-methyl-3-(6-methyl-2-oxo-1,3-oxazinan-3-yl)-N-(3,4,5-trifluorophenyl)-6,7-dihydro-4H-pyrazolo[1,5-a]pyrazine-5-carboxamide]	7.06
CC1CCOC(=O)N1c1cnn2c1CN(C(=O)Nc1cc(F)c(F)c(F)c1)[C@@H](C)C2 (stereo partly drawn) [Example 426, (6S)-6-methyl-3-(4-methyl-2-oxo-1,3-oxazinan-3-yl)-N-(3,4,5-trifluorophenyl)-6,7-dihydro-4H-pyrazolo[1,5-a]pyrazine-5-carboxamide]	7.54
C[C@H]1Cn2ncc(N3C[C@@H](Oc4ncccn4)[C@H](O)C3=O)c2CN1C(=O)Nc1cc(F)c(F)c(F)c1 [Example 428, (6S)-3-[(3S,4R)-3-hydroxy-2-oxo-4-pyrimidin-2-yloxy-pyrrolidin-1-yl]-6-methyl-N-(3,4,5-trifluorophenyl)-6,7-dihydro-4H-pyrazolo[1,5-a]pyrazine-5-carboxamide]	8.22
C[C@@H]1[C@@H](Oc2ncccn2)[C@H](O)C(=O)N1c1cnn2c1CN(C(=O)Nc1cc(F)c(F)c(F)c1)[C@@H](C)C2 [Example 436, (6S)-3-[(2R,3R,4S)-4-hydroxy-2-methyl-5-oxo-3-pyrimidin-2-yloxy-pyrrolidin-1-yl]-6-methyl-N-(3,4,5-trifluorophenyl)-6,7-dihydro-4H-pyrazolo[1,5-a]pyrazine-5-carboxamide]	7.80
C[C@H]1Cn2ncc(N3CC(c4ncccn4)CC3=O)c2CN1C(=O)Nc1cc(F)c(F)c(F)c1 (stereo partly drawn) [Example 437, (6S)-6-methyl-3-(2-oxo-4-pyrimidin-2-yl-pyrrolidin-1-yl)-N-(3,4,5-trifluorophenyl)-6,7-dihydro-4H-pyrazolo[1,5-a]pyrazine-5-carboxamide]	8.22
